Laboratory results as given in patent US10544113B2 (priority 2016, dated 2020).
Read-outs that look alike come from different tables or passages of the source.

Target: mu-opioid receptor (MOR) (Homo sapiens (Human), UniProt P35372)
Assay: cell-based
Settings: for AUC: AUC of [Ca2+]i fluorescence, CHO-K1/MOR/Gα15 cells
[1] = EC50, CHO-K1/MOR/Gα15 cells, combined with a MOR antagonist
[2] = combined with a MOR antagonist, read-out: FLIPR Ca^2+ EC50

mu-opioid receptor (MOR), sequence (P35372 whole entry): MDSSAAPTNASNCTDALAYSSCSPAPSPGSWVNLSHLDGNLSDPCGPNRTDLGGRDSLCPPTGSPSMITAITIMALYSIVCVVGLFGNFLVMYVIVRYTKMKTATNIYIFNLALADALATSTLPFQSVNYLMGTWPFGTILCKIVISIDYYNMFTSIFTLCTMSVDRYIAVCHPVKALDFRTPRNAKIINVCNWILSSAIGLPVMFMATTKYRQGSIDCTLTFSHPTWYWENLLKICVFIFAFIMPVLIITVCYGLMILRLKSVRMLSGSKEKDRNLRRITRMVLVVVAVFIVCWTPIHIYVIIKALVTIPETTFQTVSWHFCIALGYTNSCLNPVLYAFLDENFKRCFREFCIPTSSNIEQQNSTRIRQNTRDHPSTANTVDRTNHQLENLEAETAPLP

Row | SMILES | EC50 [1] | FLIPR Ca^2+ AUC (combined with a MOR antagonist) | EC50 [2] | AUC (combined with a MOR antagonist) | EC50 (FLIPR Ca^2+ EC50, combined with a MOR antagonist)
1 | Cc1cc(C(=O)NC2CCC2)ccc1N1C(=O)CSC1c1ccc(F)cc1 (stereo not shown) [Example 337] | < 10 µM | 8936 | 0.3 µM | – | –
2 | Cc1cc(C(=O)NC2CCCC2)ccc1N1C(=O)CSC1c1ccc(F)cc1 (stereo not shown) [Example 338] | < 10 µM | 9215 | 4.4 µM | – | –
3 | Cc1cc(C(=O)NC2CCCCC2)ccc1N1C(=O)CSC1c1ccc(F)cc1 (stereo not shown) [Example 339] | – | 7164 | 10 µM | – | –
4 | Cc1cc(C(=O)NCCN(C)C)ccc1N1C(=O)CSC1c1ccc(F)cc1 (stereo not shown) [Example 340] | – | 9445 | 10 µM | – | –
5 | CCN(CC)CCNC(=O)c1ccc(N2C(=O)CSC2c2ccc(F)cc2)c(C)c1 (stereo not shown) [Example 341] | – | 9983 | 3.3 µM | – | –
6 | Cc1cc(C(=O)NCCCN(C)C)ccc1N1C(=O)CSC1c1ccc(F)cc1 (stereo not shown) [Example 342] | – | 16741 | 3.3 µM | – | –
7 | Cc1cc(C(=O)NCCCN2CCOCC2)ccc1N1C(=O)CSC1c1ccc(F)cc1 (stereo not shown) [Example 347] | – | 12967 | 8.2 µM | – | –
8 | Cc1cc(C(=O)NCCCn2ccnc2)ccc1N1C(=O)CSC1c1ccc(F)cc1 (stereo not shown) [Example 348] | – | 13641 | 8.8 µM | – | –
9 | Cc1cc(C(=O)N2CC[C@@H](N(C)C)C2)ccc1N1C(=O)CSC1c1ccc(F)cc1 (stereo partly shown) [Example 349] | – | 11923 | 10 µM | – | –
10 | CCOC(=O)N1CCC(NC(=O)c2ccc(N3C(=O)CSC3c3ccc(F)cc3)c(C)c2)CC1 (stereo not shown) [Example 350] | – | 12979 | 4.4 µM | – | –
11 | Cc1cc(C(=O)N2CCC(N)C2)ccc1N1C(=O)CSC1c1ccc(F)cc1 (stereo not shown) [Example 351] | – | 11205 | 10 µM | – | –
12 | Cc1cc(C(=O)N2CCCC(O)C2)ccc1N1C(=O)CSC1c1ccc(F)cc1 (stereo not shown) [Example 353] | – | 11991 | 7.3 µM | – | –
13 | Cc1cc(C(=O)N2CC(O)C2)ccc1N1C(=O)CSC1c1ccc(F)cc1 (stereo not shown) [Example 354] | – | 14863 | 3.6 µM | – | –
14 | COC[C@@H]1CCCN1C(=O)c1ccc(N2C(=O)CSC2c2ccc(F)cc2)c(C)c1 (stereo partly shown) [Example 355] | – | 12691 | 10 µM | – | –
15 | COCCN(C)C(=O)c1ccc(N2C(=O)CSC2c2ccc(F)cc2)c(C)c1 (stereo not shown) [Example 356] | – | 9505 | 11.8 µM | – | –
16 | Cc1cc(C(=O)N2CCC(N)CC2)ccc1N1C(=O)CSC1c1ccc(F)cc1 (stereo not shown) [Example 357] | < 10 µM | 12663 | 10 µM | – | –
17 | Cc1cc(C(=O)Nc2ccccc2)ccc1N1C(=O)CSC1c1ccc(F)cc1 (stereo not shown) [Example 361] | < 10 µM | 6128 | 8.8 µM | more than 5000 | –
18 | COc1cccc(NC(=O)c2ccc(N3C(=O)CSC3c3ccc(F)cc3)c(C)c2)c1 (stereo not shown) [Example 368] | < 10 µM | 8915 | 6.7 µM | more than 5000 | –
19 | COc1ccccc1NC(=O)c1ccc(N2C(=O)CSC2c2ccc(F)cc2)c(C)c1 (stereo not shown) [Example 373] | – | 12223 | 13.6 µM | more than 5000 | –
20 | Cc1cc(C(=O)NCc2ccccc2)ccc1N1C(=O)CSC1c1ccc(F)cc1 (stereo not shown) [Example 374] | – | 6726 | 5.1 µM | more than 5000 | –
21 | Cc1cc(C(=O)NCc2ccc(Cl)cc2F)ccc1N1C(=O)CSC1c1ccc(F)cc1 (stereo not shown) [Example 375] | – | 4172 | 3.8 µM | – | –

Row | SMILES | EC50 [1] | FLIPR Ca^2+ AUC (combined with a MOR antagonist) | EC50 [2] | AUC (combined with a MOR antagonist) | EC50 (FLIPR Ca^2+ EC50, combined with a MOR antagonist)
22 | Cc1cc(C(=O)NCc2cc(F)ccc2F)ccc1N1C(=O)CSC1c1ccc(F)cc1 (stereo not shown) [Example 376] | – | 8823 | 1 µM | – | –
23 | Cc1cc(C(=O)NCc2cccc(C(F)(F)F)c2)ccc1N1C(=O)CSC1c1ccc(F)cc1 (stereo not shown) [Example 377] | – | 12637 | 12.5 µM | – | –
24 | Cc1cc(C(=O)NCc2ccc(F)c(F)c2)ccc1N1C(=O)CSC1c1ccc(F)cc1 (stereo not shown) [Example 378] | < 10 µM | 15891 | 6.3 µM | – | –
25 | COc1cc(CNC(=O)c2ccc(N3C(=O)CSC3c3ccc(F)cc3)c(C)c2)cc(OC)c1 (stereo not shown) [Example 380] | < 10 µM | 10013 | 8.2 µM | more than 5000 | –
26 | Cc1cc(C(=O)NCc2cc(F)cc(F)c2)ccc1N1C(=O)CSC1c1ccc(F)cc1 (stereo not shown) [Example 381] | < 10 µM | 6035 | 8.2 µM | more than 5000 | –
27 | Cc1cc(C(=O)NCCc2ccccc2F)ccc1N1C(=O)CSC1c1ccc(F)cc1 (stereo not shown) [Example 383] | – | 5504 | 6.9 µM | – | –
28 | Cc1cc(C(=O)NCCc2cccc(F)c2)ccc1N1C(=O)CSC1c1ccc(F)cc1 (stereo not shown) [Example 385] | – | 7501 | 3.9 µM | – | –
29 | Cc1cc(C(=O)NCCc2cccc(Cl)c2)ccc1N1C(=O)CSC1c1ccc(F)cc1 (stereo not shown) [Example 386] | – | 5727 | 4.2 µM | – | –
30 | Cc1cc(C(=O)NCCc2ccc(F)cc2)ccc1N1C(=O)CSC1c1ccc(F)cc1 (stereo not shown) [Example 387] | – | 5770 | 4 µM | – | –
31 | Cc1cc(C(=O)NCCc2ccc(Cl)cc2)ccc1N1C(=O)CSC1c1ccc(F)cc1 (stereo not shown) [Example 388] | – | 2951 | 2 µM | – | –
32 | Cc1cc(C(=O)OCCOCCOC(=O)c2ccc(N3C(=O)CSC3c3ccc(F)cc3)c(C)c2)ccc1N1C(=O)CSC1c1ccc(F)cc1 (stereo not shown) [Example 390] | – | 7399 | 13.9 µM | more than 5000 | –
33 | Cc1noc(N2C(=O)CSC2c2ccc(F)cc2)c1C (stereo not shown) [Example 395] | – | 7107 | 12 µM | more than 5000 | –
34 | Cc1c(N2C(=O)CSC2c2cccc(F)c2)c(=O)n(-c2ccccc2)n1C (stereo not shown) [Example 404] | – | 7127 | 21.8 µM | more than 5000 | –
35 | Cc1c(N2C(=O)CSC2c2ccccc2F)c(=O)n(-c2ccccc2)n1C (stereo not shown) [Example 406] | – | 9974 | 31.2 µM | more than 5000 | –
36 | Cc1c(N2C(=O)CSC2c2ccccc2)c(=O)n(-c2ccccc2)n1C (stereo not shown) [Example 408] | – | 9281 | 12.7 µM | more than 5000 | –
37 | Cc1c(N2C(=O)CSC2c2ccc(F)cc2)c(=O)n(-c2ccccc2)n1C (stereo not shown) [Example 411] | – | 8099 | 20 µM | more than 5000 | –
38 | COC(=O)c1ccc(N2C(=O)CSC2c2ccoc2)c(C)c1 (stereo not shown) [Example 416] | – | 6514 | 11.7 µM | more than 5000 | –
39 | [2H]c1c([2H])c(C2SCC(=O)N2c2ccc(C(=O)O)cc2C)c([2H])c([2H])c1F (stereo not shown) [Example 579, 4-{2-[4-Fluoro-2,3,5,6-d4-phenyl]-4-oxo-1,3-thiazolidin-3-yl}-3-methylbenzoic acid] | – | 14761 | 1.93 µM | – | –
40 | [2H]c1c([2H])c(C2SCC(=O)N2c2ccc(C(=O)OCC)cc2C)c([2H])c([2H])c1F (stereo not shown) [Example 580, Ethyl 4-{2-[4-fluoro-2,3,5,6-d4-phenyl]-4-oxo-1,3-thiazolidin-3-yl}-3-methylbenzoate] | – | 14441 | – | – | 4.26 µM
41 | [2H]C1(c2ccc(F)cc2)SCC(=O)N1c1ccc(C(=O)O)cc1C (stereo not shown) [Example 581, 4-[2-(4-Fluorophenyl)-4-oxo-2-d1-1,3-thiazolidin-3-yl]-3-methylbenzoic acid] | – | 13703 | 3.31 µM | – | –
